From patent US20050031537A1, “Multifunctional COX-2 inhibitors” (priority 2002, published 2005)

How the values were obtained:
Assay type in all cases: cell-based, human
PPRE luciferase = PPRE luciferase activation, transient transfection reporter assay (test (a)); conditions: for Test (a) activation of PPRE luciferase by at least 100%: positive in 184B5, 184B5/HER, HCA7, HCT116, SKBR3 and BT474 cells, 24 h treatment
Excerpt: We turn now to criterion (a), that is activation of PPRE luciferase by at least 100%. PPRE-luciferase refers to a DNA construct containing the peroxisome proliferator activated receptor (PPAR) binding element joined to luciferase. Cells are transfected with PPRE-luciferase DNA. Ligands of PPAR induce luciferase activity. The ability of a test compound to stimulate PPRE-luciferase signifies that the test compound activates PPAR-mediated gene transcription. PPRE means peroxisome proliferator response element and the method by which PPRE-luciferase is constructed is described in Schoonjans, K., et al, J. Biol. Chem. 270, No. 33, 19269-19276 (Aug. 18, 1995). Use of PPRE-luciferase in a transient transfection to measure increase in promoter activity is disclosed in Subbaramaiah, K. et al, J. Biol. Chem. 270, No. 15, 12440-12448 (Apr. 13, […]).
For each well, 1.8 μg of PPRE3-tk-luciferase construct plasmid DNA (described in Forman, B. M., et al, Cell 83, 803 (1995)) plus 0.2 μg of pSV-β-galactosidase were introduced into cells using 8 μg of LipofectAMINE as per the manufacturer's instructions (Invitrogen, CA). After 7 h of incubation, the medium was replaced with basal medium. After transfection, cells were treated with test compound for 24 h. Reporter activities which include luciferase and β-galactosidase were measured in cellular extract 24 h later. Six wells were used for each of the conditions. Luciferase activity represents data that have been normalized with β-galactosidase.
The luciferase assay was performed as per the BD Pharmingen assay reagents. The Enhanced Luciferase Assay Kit provides a firefly luciferase substrate formulation (Substrates A and B) and cell lysis buffer intended for use in measuring luciferase expressed by transfected cells. Media from cell culture plates was removed and rinsed twice with phosphate buffered saline. Enough 1X cell lysis buffer was added to cover cells and incubated at room temperature for 15-20 min. Cells were dislodged by scraping and transferred to microcentrifuge tubes. […] 20-100 μl cell extract was placed into an assay cuvette. One automatic injector type luminometer is used for assay. Manually 100 μl of Substrate A was added to the assay cuvette and automatically 100 μl of Substrate B was injected. Measurements were performed using a luminometer, for a measurement time of 10 seconds.
The β-galactosidase assay was performed as follows:
50 μl of cell lysate from above was incubated with 50 μl of o-nitrophenyl-β-D-galactoside (ONPG; 4 mg/mL) in Z buffer, (Na2HPO4.7H2O (0.06M), NaH2PO4.H2O (0.04M), 1M KCl (0.01M), 1M MgSO4 (0.001M), β-mercaptoethanol (BME) (0.05M) pH 7.0). The reaction was stopped after sufficient yellow color has developed. The yellow color developed is measured at A420 […].

EGFR = experiment: Western blotting for expression of EGFR (test (b)); conditions: for Test (b) EGFR: at least 50% decrease in level of or 50% downregulation of expression: positive in 184B5, 184B5/HER, 1483, LNCaP, HeLa and CaSki cells, 24 h, Western blot
Excerpt: (§1) We turn now to the criterion (b), that is at least 50% decrease in level of or 50% downregulation of expression of Class I family of receptors tyrosine kinase. The Class I family of receptors tyrosine kinase is described in Reese, M. D., et al Stem Cells 15, pages 1-8 (1997), the whole of which in incorporated herein by reference. Members of the family include HER-2/neu, HER-3, HER-4 and epidermal growth factor receptor (EGFR) and are single-chain membrane spanning proteins which have significant homology to one another including about 80% amino acid identity in the tyrosine kinase domain.
Epidermal growth factor receptor (EGFR) is a 170 kDA glycoprotein. […] After ligand binding, EGFR undergoes dimerization which is essential for activation of its enzymatic kinase activity. EGFR is thus autophospliorylated and transphosphorylated on tyrosine residues, and the phosphorylated residues become the site of association of effector proteins. Overexpressed EGFR is intimately involved in modulating the epidermal growth factor growth signal and is considered as likely to confer a growth advantage. This conclusion is supported by the observation that tumor growth in nude mice is inhibited by treatment with anti-EGFR antibodies and tumorigenicity in nude mice is inhibited through blockage of the tyrosine kinase activity of the receptor.
(§2) To evaluate the expression of Class I family of receptors tyrosine kinase (EGFR, HER-2/neu), Western blotting can be performed. Antibodies for EGFR and HER-2/neu can be obtained from Santa Cruz Biotechnology, Inc.
(§3) Expression of EGFR (performed in 184B5, 184B5/HER, 1483, LNCaP, HeLa and CaSki cells)and HER-2/neu (performed in 184B5/HER, SKBR3 and BT474 cells) was assessed in cells after treatment with test compound for 24 hours. 5×10^6 cells were used for the treatment. Western blotting technique was used to assess the expression levels in cells treated with the test compound compared to vehicle alone. Western blotting was carried out as follows:
(§4) Cell lysates were prepared by treating cells with lysis buffer (150 mM NaCl, 100 mM Tris (pH 8.0), 1% Tween 20, 50 mM diethyldithiocarbamate, 1 mM EDTA, 1 mM phenylmethylsulfonyl fluoride, 10 μg/ml aprotinin, 10 μg/ml trypsin inhibitor and 10 μg/ml leupeptin). Lysates were sonicated for 20 s on ice and centrifuged at 10,000×g for 10 min to sediment the particulate material. The protein concentration of the supernatant was measured by the method of Lowry, O. H., et al., J. Biol. Chem. 193, 265-275 (195 1). SDS/PAGE was performed under reducing conditions on 10% polyacrylamide gels as described by Laemmli, U.K., Nature (Lond.) 227, 680-685 (1970). The resolved proteins were transferred onto nitrocellulose sheets as detailed by Towbin, H. et al., Proc. Natl. Acad. Sci. USA 76, 4350-4354 (1979). The nitrocellulose membrane was then incubated with anti-EGFR antiserum or anti-HER-2/neu antiserum. Secondary antibody to IgG conjugated to horseradish peroxidase was used. The various antisera were purchased from Santa Cruz Biotechnology, Inc., CA. The blots were probed with the Renaissance Western blot detection system according to the manufacturer's instructions (PerkinElmer Life Sciences, Boston, Mass.).

HER-2/neu = experiment: Western blotting for expression of HER-2/neu (test (b)); conditions: positive in 184B5/HER, BT474 and SKBR3 cells; 24 h; Western blot
Excerpt: as §1
HER-2/neu (erbB-2) gene product is a 185-kDA transmembrane receptor tyrosine kinase that is described in some detail in said Reese et al publication and overexpression thereof has been associated with tumor growth in several kinds of cancer.
as §2, §3, §4

Row | SMILES | Test (a) activation of PPRE luciferase by at least 100% (PPRE luciferase) | Test (b) EGFR: at least 50% decrease in level of or 50% downregulation of expression (EGFR) | Test (b) HER-2/neu: at least 50% decrease in level of or 50% downregulation of expression (HER-2/neu) | activation of the promoter (PPRE-luciferase) (PPRE luciferase; 184B5 cells, 24 hours, highest concentration) [%] | decrease in level of EGFR (EGFR; 184B5 cells, 24 hours, Western blotting)
1 | Cc1ccc(-c2cc(C(F)(F)F)nn2-c2ccc(S(N)(=O)=O)cc2)cc1 [Celecoxib] | + (A plus sign in the table indicates a positive result, that is meeting the test for each cell line as indicated above as providing a positive result) | + (A plus sign in the table indicates a positive result, that is meeting the test for each cell line as indicated above as providing a positive result) | + (A plus sign in the table indicates a positive result, that is meeting the test for each cell line as indicated above as providing a positive result) | – | –
2 | CCCCCCCOC(=O)Cc1c(C)n(C(=O)c2ccc(Cl)cc2)c2ccc(OC)cc12 [Indomethacin Analog 1, indomethacin heptyl ester] | + (A plus sign in the table indicates a positive result, that is meeting the test for each cell line as indicated above as providing a positive result) | + (A plus sign in the table indicates a positive result, that is meeting the test for each cell line as indicated above as providing a positive result) | + (A plus sign in the table indicates a positive result, that is meeting the test for each cell line as indicated above as providing a positive result) | – | –
3 | COc1ccc(OC(=O)Cc2c(C)n(C(=O)c3ccc(Cl)cc3)c3ccc(OC)cc23)cc1 [Indomethacin Analog 3, 1-(p-chlorobenzoyl)-5-methoxy-2-methyl-1H-indole-3-acetic acid, 4-methoxyphenyl ester] | + (A plus sign in the table indicates a positive result, that is meeting the test for each cell line as indicated above as providing a positive result) | + (A plus sign in the table indicates a positive result, that is meeting the test for each cell line as indicated above as providing a positive result) | + (A plus sign in the table indicates a positive result, that is meeting the test for each cell line as indicated above as providing a positive result) | – | –
4 | NS(=O)(=O)c1ccc(-n2nc(C(F)(F)F)cc2-c2ccc(Cl)cc2)cc1 [SC-236, 4-[5-(4-chlorophenyl)-3-(trifluoromethyl)-1H-pyrazol-1-yl]benzenesulfonamide] | + (A plus sign in the table indicates a positive result, that is meeting the test for each cell line as indicated above as providing a positive result) | + (A plus sign in the table indicates a positive result, that is meeting the test for each cell line as indicated above as providing a positive result) | + (A plus sign in the table indicates a positive result, that is meeting the test for each cell line as indicated above as providing a positive result) | 150 | more than 50%
5 | CS(=O)(=O)c1ccc(-n2nc(C(F)(F)F)cc2-c2ccc(F)cc2)cc1 [SC-58125, 4-[5-(4-fluorophenyl)-3-(trifluoromethyl)-1H-pyrazol-1-yl]benzenemethylsulfone] | + (A plus sign in the table indicates a positive result, that is meeting the test for each cell line as indicated above as providing a positive result) | + (A plus sign in the table indicates a positive result, that is meeting the test for each cell line as indicated above as providing a positive result) | + (A plus sign in the table indicates a positive result, that is meeting the test for each cell line as indicated above as providing a positive result) | – | –
